PubChem BioAssay (NCI)
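Briefly, cells in 96-well plates were exposed to five compound concentrations for 48 h, and endpoints were estimated by linear interpolation. TGI: total growth inhibition.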

Key:
Test in all cases: NCI-60 cell line screen, 48 h
OVCAR-3 ovarian = tested on: OVCAR-3 ovarian
MDA-MB-435 = tested on: MDA-MB-435
SN12C renal = tested on: SN12C renal
ACHN renal = tested on: ACHN renal
HCC-2998 colon = tested on: HCC-2998 colon
SK-OV-3 ovarian = tested on: SK-OV-3 ovarian
MCF7 breast = tested on: MCF7 breast
UO-31 renal = tested on: UO-31 renal
OVCAR-5 ovarian = tested on: OVCAR-5 ovarian
BT-549 breast = tested on: BT-549 breast
SR leukemia = tested on: SR leukemia
SNB-75 CNS = tested on: SNB-75 CNS
LOX IMVI melanoma = tested on: LOX IMVI melanoma
NCI/ADR-RES ovarian = tested on: NCI/ADR-RES ovarian
HOP-62 NSCLC = tested on: HOP-62 NSCLC
KM12 colon = tested on: KM12 colon
NCI-H226 lung = tested on: NCI-H226 lung
SF-295 CNS = tested on: SF-295 CNS
UACC-62 melanoma = tested on: UACC-62 melanoma
MALME-3M melanoma = tested on: MALME-3M melanoma
T-47D breast = tested on: T-47D breast
OVCAR-8 ovarian = tested on: OVCAR-8 ovarian
SF-539 CNS = tested on: SF-539 CNS
UACC-257 melanoma = tested on: UACC-257 melanoma
HS 578T breast = tested on: HS 578T breast
HOP-92 NSCLC = tested on: HOP-92 NSCLC
HT29 colon = tested on: HT29 colon
SF-268 CNS = tested on: SF-268 CNS
RXF 393 renal = tested on: RXF 393 renal
A549 NSCLC = tested on: A549 NSCLC
M14 melanoma = tested on: M14 melanoma
SNB-19 CNS = tested on: SNB-19 CNS
SK-MEL-5 melanoma = tested on: SK-MEL-5 melanoma
NCI-H460 lung = tested on: NCI-H460 lung
786-0 renal = tested on: 786-0 renal
TK-10 renal = tested on: TK-10 renal
DU-145 prostate = tested on: DU-145 prostate
SK-MEL-28 melanoma = tested on: SK-MEL-28 melanoma
CCRF-CEM leukemia = tested on: CCRF-CEM leukemia
IGROV1 ovarian = tested on: IGROV1 ovarian
OVCAR-4 ovarian = tested on: OVCAR-4 ovarian
U251 CNS = tested on: U251 CNS
HL-60(TB) leukemia = tested on: HL-60(TB) leukemia
PC-3 prostate = tested on: PC-3 prostate
SK-MEL-2 melanoma = tested on: SK-MEL-2 melanoma
RPMI-8226 leukemia = tested on: RPMI-8226 leukemia
COLO 205 colon = tested on: COLO 205 colon
MDA-MB-231 breast = tested on: MDA-MB-231 breast
MOLT-4 leukemia = tested on: MOLT-4 leukemia
NCI-H23 lung = tested on: NCI-H23 lung
HCT-116 colon = tested on: HCT-116 colon
HCT-15 colon = tested on: HCT-15 colon
MDA-N = tested on: MDA-N
SW-620 colon = tested on: SW-620 colon
K-562 leukemia = tested on: K-562 leukemia
A498 renal = tested on: A498 renal
EKVX NSCLC = tested on: EKVX NSCLC
CAKI-1 renal = tested on: CAKI-1 renal
NCI-H522 lung = tested on: NCI-H522 lung

## CCCc1c(Cl)nc(Cl)nc1Cl
OVCAR-3 ovarian
  TGI: 5.46 µM
MDA-MB-435
  TGI: 2.44 µM
SN12C renal
  TGI: 5.51 µM
ACHN renal
  TGI: 10.7 µM
HCC-2998 colon
  TGI: 15.6 µM
SK-OV-3 ovarian
  TGI: > 100 µM
MCF7 breast
  TGI: 16.3 µM
UO-31 renal
  TGI: > 55.4 µM
OVCAR-5 ovarian
  TGI: 17.5 µM
BT-549 breast
  TGI: 4.37 µM
SR leukemia
  TGI: 2.15 µM
SNB-75 CNS
  TGI: 28.1 µM
LOX IMVI melanoma
  TGI: 0.461 µM
NCI/ADR-RES ovarian
  TGI: 7.53 µM
HOP-62 NSCLC
  TGI: 7.79 µM
KM12 colon
  TGI: 15.8 µM
NCI-H226 lung
  TGI: 0.0913 µM
SF-295 CNS
  TGI: 12.3 µM
UACC-62 melanoma
  TGI: > 100 µM
MALME-3M melanoma
  TGI: 4.95 µM
T-47D breast
  TGI: 11.7 µM
OVCAR-8 ovarian
  TGI: > 19.9 µM
SF-539 CNS
  TGI: 5.84 µM
UACC-257 melanoma
  TGI: 11.1 µM
HS 578T breast
  TGI: 27.6 µM
HOP-92 NSCLC
  TGI: 11.9 µM
HT29 colon
  TGI: 4.02 µM
SF-268 CNS
  TGI: > 68 µM
RXF 393 renal
  TGI: 4.93 µM
A549 NSCLC
  TGI: 24.6 µM
M14 melanoma
  TGI: > 37.9 µM
SNB-19 CNS
  TGI: 21.1 µM
SK-MEL-5 melanoma
  TGI: 2.54 µM
NCI-H460 lung
  TGI: 12.7 µM
786-0 renal
  TGI: 11.2 µM
TK-10 renal
  TGI: 18.5 µM
DU-145 prostate
  TGI: 9.82 µM
SK-MEL-28 melanoma
  TGI: 1.45 µM
CCRF-CEM leukemia
  TGI: 0.0921 µM
IGROV1 ovarian
  TGI: > 37.3 µM
OVCAR-4 ovarian
  TGI: 26.3 µM
U251 CNS
  TGI: 7.95 µM
HL-60(TB) leukemia
  TGI: 3.01 µM
PC-3 prostate
  TGI: 28.6 µM
SK-MEL-2 melanoma
  TGI: 4.35 µM
RPMI-8226 leukemia
  TGI: > 33.1 µM
COLO 205 colon
  TGI: 0.706 µM
MDA-MB-231 breast
  TGI: 7.99 µM
MOLT-4 leukemia
  TGI: 10.7 µM
NCI-H23 lung
  TGI: 4.3 µM
HCT-116 colon
  TGI: 22.8 µM
HCT-15 colon
  TGI: 3.71 µM
MDA-N
  TGI: 0.548 µM
SW-620 colon
  TGI: 12.7 µM
K-562 leukemia
  TGI: 1.53 µM
A498 renal
  TGI: 34.7 µM

## Cc1c(C(=O)OCc2ccccc2)[n+](=O)c2ccccc2n1[O-]
OVCAR-3 ovarian
  TGI: > 100 µM
MDA-MB-435
  TGI: 75.2 µM
SN12C renal
  TGI: > 100 µM
ACHN renal
  TGI: > 100 µM
HCC-2998 colon
  TGI: > 100 µM
SK-OV-3 ovarian
  TGI: > 100 µM
MCF7 breast
  TGI: > 100 µM
UO-31 renal
  TGI: 86.3 µM
OVCAR-5 ovarian
  TGI: > 100 µM
BT-549 breast
  TGI: > 100 µM
SR leukemia
  TGI: 47.3 µM
SNB-75 CNS
  TGI: 56.5 µM
LOX IMVI melanoma
  TGI: 44.8 µM
NCI/ADR-RES ovarian
  TGI: 93.8 µM
HOP-62 NSCLC
  TGI: 61.2 µM
KM12 colon
  TGI: > 100 µM
NCI-H226 lung
  TGI: 57.1 µM
SF-295 CNS
  TGI: > 100 µM
UACC-62 melanoma
  TGI: > 100 µM
T-47D breast
  TGI: 57.2 µM
OVCAR-8 ovarian
  TGI: > 100 µM
SF-539 CNS
  TGI: > 100 µM
UACC-257 melanoma
  TGI: 56.1 µM
HS 578T breast
  TGI: 72.9 µM
HOP-92 NSCLC
  TGI: 13.4 µM
HT29 colon
  TGI: > 100 µM
SF-268 CNS
  TGI: > 100 µM
RXF 393 renal
  TGI: 69.1 µM
A549 NSCLC
  TGI: 70.7 µM
M14 melanoma
  TGI: > 100 µM
SNB-19 CNS
  TGI: > 100 µM
EKVX NSCLC
  TGI: 91.5 µM
SK-MEL-5 melanoma
  TGI: 53.6 µM
NCI-H460 lung
  TGI: > 100 µM
786-0 renal
  TGI: > 100 µM
TK-10 renal
  TGI: 84.6 µM
DU-145 prostate
  TGI: 47.8 µM
SK-MEL-28 melanoma
  TGI: > 100 µM
CCRF-CEM leukemia
  TGI: 0.199 µM
IGROV1 ovarian
  TGI: 34.1 µM
OVCAR-4 ovarian
  TGI: 85 µM
U251 CNS
  TGI: > 100 µM
HL-60(TB) leukemia
  TGI: 77.4 µM
PC-3 prostate
  TGI: > 100 µM
SK-MEL-2 melanoma
  TGI: > 100 µM
RPMI-8226 leukemia
  TGI: 30.5 µM
COLO 205 colon
  TGI: 37.6 µM
MDA-MB-231 breast
  TGI: 64.8 µM
MOLT-4 leukemia
  TGI: 43 µM
NCI-H23 lung
  TGI: 95.7 µM
HCT-116 colon
  TGI: 65.6 µM
HCT-15 colon
  TGI: > 100 µM
MDA-N
  TGI: > 100 µM
K-562 leukemia
  TGI: > 100 µM
A498 renal
  TGI: 94.3 µM
CAKI-1 renal
  TGI: 80.5 µM

## O=C(NCCc1[nH]nc2c1C(=O)C=C(Nc1ccccc1)C2=O)OCc1ccccc1
OVCAR-3 ovarian
  TGI: > 100 µM
MDA-MB-435
  TGI: > 100 µM
SN12C renal
  TGI: > 100 µM
ACHN renal
  TGI: > 100 µM
SK-OV-3 ovarian
  TGI: > 100 µM
MCF7 breast
  TGI: > 100 µM
UO-31 renal
  TGI: > 100 µM
OVCAR-5 ovarian
  TGI: > 100 µM
BT-549 breast
  TGI: > 100 µM
SR leukemia
  TGI: > 100 µM
NCI-H522 lung
  TGI: > 100 µM
SNB-75 CNS
  TGI: > 100 µM
LOX IMVI melanoma
  TGI: > 100 µM
NCI/ADR-RES ovarian
  TGI: > 100 µM
KM12 colon
  TGI: > 100 µM
NCI-H226 lung
  TGI: > 100 µM
SF-295 CNS
  TGI: > 100 µM
UACC-62 melanoma
  TGI: > 100 µM
T-47D breast
  TGI: > 100 µM
OVCAR-8 ovarian
  TGI: > 100 µM
SF-539 CNS
  TGI: > 100 µM
UACC-257 melanoma
  TGI: > 100 µM
HS 578T breast
  TGI: > 100 µM
HOP-92 NSCLC
  TGI: > 100 µM
HT29 colon
  TGI: > 100 µM
SF-268 CNS
  TGI: > 100 µM
RXF 393 renal
  TGI: > 100 µM
A549 NSCLC
  TGI: > 100 µM
M14 melanoma
  TGI: > 100 µM
SNB-19 CNS
  TGI: > 100 µM
EKVX NSCLC
  TGI: > 100 µM
SK-MEL-5 melanoma
  TGI: > 100 µM
NCI-H460 lung
  TGI: > 100 µM
786-0 renal
  TGI: > 100 µM
TK-10 renal
  TGI: > 100 µM
DU-145 prostate
  TGI: > 100 µM
CCRF-CEM leukemia
  TGI: > 100 µM
IGROV1 ovarian
  TGI: > 100 µM
OVCAR-4 ovarian
  TGI: > 100 µM
U251 CNS
  TGI: > 100 µM
HL-60(TB) leukemia
  TGI: > 100 µM
PC-3 prostate
  TGI: > 100 µM
SK-MEL-2 melanoma
  TGI: > 100 µM
RPMI-8226 leukemia
  TGI: > 100 µM
COLO 205 colon
  TGI: > 100 µM
MDA-MB-231 breast
  TGI: > 100 µM
MOLT-4 leukemia
  TGI: > 100 µM
NCI-H23 lung
  TGI: > 100 µM
HCT-116 colon
  TGI: > 100 µM
HCT-15 colon
  TGI: > 100 µM
MDA-N
  TGI: > 100 µM
SW-620 colon
  TGI: > 100 µM
A498 renal
  TGI: > 100 µM
CAKI-1 renal
  TGI: > 100 µM
